According to PMC13083723 (Patterns, 2026):
Residues, ends and D or L forms follow the SMILES beside them.

Tested on: Vero-E6 cells
Test: cells
Type: cell-based
Conditions: for activation at 10 µM: Chlorocebus sabaeus, Vero C1008, 24 h, read-out: PL_Result

Structure (SMILES): CC(C)CNc1nc(-c2cccc3ncccc23)cn2c(-c3ccc(C(=O)NC4CC4)cc3)cnc12 [SPE_K18530250]
- activation at 10 µM: -11.5%

Structure (SMILES): Cc1cccc2c1CC[C@H](CN1CCC(c3c(Cl)cccc3Cl)CC1)C[C@@H]2O [SPE_K08333979]
- activation at 10 µM: -2.39%

Structure (SMILES): CC1(C)CNc2cc(NC(=O)c3cccnc3NCc3ccncc3)ccc21 [SPE_K99616396]
- activation at 10 µM: -4.48%

Structure (SMILES): O=S(=O)(c1cccc2cnccc12)N1CCNCC1 [SPE_K72462751]
- activation at 10 µM: -15.9%

Structure (SMILES): NC(=O)c1cccc2cn(-c3ccc([C@@H]4CCCNC4)cc3)nc12 [SPE_K54955827]
- activation at 10 µM: -6.71%

Structure (SMILES): C=CCN1C[C@H](C(=O)N(CCCN(C)C)C(=O)NCC)C[C@@H]2c3cccc4[nH]cc(c34)C[C@H]21 [SPE_K86882815]
- activation at 10 µM: 9.44%

Structure (SMILES): CN(C)C(=N)NCCC[C@H](N)C(=O)O [SPE_K36269323]
- activation at 10 µM: -6.39%

Structure (SMILES): O=C(NCC(=O)N1CCCC1)Nc1ccc2cnccc2c1 [SPE_K86718786]
- activation at 10 µM: -0.0855%

Structure (SMILES): OC[C@H]1O[C@H](O)C[C@@H](O)[C@@H]1O [SPE_K97808269]
- activation at 10 µM: -3.49%

Structure (SMILES): COc1ccc(Oc2c(Cl)cnn(C3c4ccccc4-c4ccccc43)c2=O)cc1 [SPE_K27732927]
- activation at 10 µM: -5.19%

Structure (SMILES): O=C(Nc1ccccc1C(=O)Nc1ccc(CCO)cc1)c1ccc([N+](=O)[O-])cc1 [SPE_K81053848]
- activation at 10 µM: -6.64%

Structure (SMILES): Cc1cc2sc(NC(=O)Cc3ccccc3)nc2cc1Cl [SPE_K47409078]
- activation at 10 µM: 0.438%

Structure (SMILES): CCN(CC)Cc1ccc2cc(COC(=O)Nc3ccc(C(=O)NO)cc3)ccc2c1 [SPE_K13810148]
- activation at 10 µM: -13.8%

Structure (SMILES): CN1CCN(c2nc(C3=C(c4c[nH]c5ccccc45)C(=O)NC3=O)c3ccccc3n2)CC1 [SPE_K16761703]
- activation at 10 µM: 37.5%

Structure (SMILES): c1ccc(-c2n[nH]c3c2oc2ccccc23)cc1 [SPE_K16664969]
- activation at 10 µM: -3.59%

Structure (SMILES): CCOC(=O)C1=C[C@]2(CC)CCCN3CCc4c(n1c1ccccc41)[C@@H]32 [SPE_K53318339]
- activation at 10 µM: -10.5%

Structure (SMILES): Nn1cnc2cc3ccccc3cc2c1=O [SPE_K31329721]
- activation at 10 µM: -8.33%

Structure (SMILES): COc1ccc(CNC(=O)Nc2ncc([N+](=O)[O-])s2)cc1 [SPE_K67860401]
- activation at 10 µM: -8.12%

Structure (SMILES): C[C@H](NC(=O)CNC(=O)c1cccc(Cl)c1)c1ccccc1 [SPE_K19482962]
- activation at 10 µM: -10.5%

Structure (SMILES): CCCCCCCCCCCCCCCCCCCCCCCCCCCCO [SPE_K03083257]
- activation at 10 µM: -15.2%

Structure (SMILES): C[C@@H](O)[C@H](N)C(=O)N1CCC[C@H]1C(=O)N1CCC[C@H]1C(=O)N[C@H](C(N)=O)[C@@H](C)O [SPE_K02206208] (H-TPPT-NH2)
- PL_Result: -5.35

Structure (SMILES): COc1ccc2[nH]c3nnc(C)c-3c(NCCOCCO)c2c1 [SPE_K02460719]
- activation at 10 µM: -9.99%

Structure (SMILES): CC(C)(C)NCC(O)c1cc(O)cc(O)c1 (stereo not shown) [SPE_M79902621]
- activation at 10 µM: -4.19%

Structure (SMILES): CC(C)N(CCC(C(N)=O)(c1ccccc1)c1ccccn1)C(C)C (stereo not shown) [SPE_A29734509]
- activation at 10 µM: 1.87%

Structure (SMILES): CCCNC(=O)Nc1ccc(Oc2ncnc3cc(OC)c(OC)cc23)cc1Cl [SPE_K90993449]
- activation at 10 µM: -9.86%

Structure (SMILES): CCCN1CCCC[C@H]1C(=O)Nc1c(C)cccc1C [SPE_K50938786]
- activation at 10 µM: 0.0286%

Structure (SMILES): OCc1cc([C@@H](O)CNCCCCCCOCCOCc2c(Cl)cccc2Cl)ccc1O [SPE_M36487418]
- activation at 10 µM: 28.8%

Structure (SMILES): COc1cnc(NS(=O)(=O)c2ccc(N)cc2)nc1 [SPE_K87492696]
- activation at 10 µM: -0.356%

Structure (SMILES): O=C(/C=C/c1cccnc1)NCCCCC1CCN(C(=O)c2ccccc2)CC1 [SPE_K58550667]
- activation at 10 µM: 2.51%

Structure (SMILES): CCCCCCCCCCCCOS(=O)(=O)O [SPE_K05680146]
- activation at 10 µM: 12.1%

Structure (SMILES): Cc1ccc(C)c(C(O)CNC(C)C)c1 (stereo not shown) [SPE_A98083480]
- activation at 10 µM: 3.82%

Structure (SMILES): CCc1ccc(CCOc2ccc(CC3SC(=O)NC3=O)cc2)nc1 (stereo not shown) [SPE_A48430263]
- activation at 10 µM: -1.25%

Structure (SMILES): CC(=O)c1ccc(S(=O)(=O)NC(=O)NC2CCCCC2)cc1 [SPE_K52960356]
- activation at 10 µM: 6.72%

Structure (SMILES): O=C(Nc1c(Cl)cncc1Cl)c1ccc(OC(F)F)c(OCC2CC2)c1 [SPE_K03194791]
- activation at 10 µM: -2.86%

Structure (SMILES): Nc1ncnc2c1ncn2C1O[C@H](COP(=O)(O)O)[C@@H](O)[C@H]1O (stereo partly shown) [SPE_A10111329]
- activation at 10 µM: -12.1%

Structure (SMILES): O=C1N[C@@H]2[C@@H](O)[C@@H](O)[C@H](O)[C@@H](CO)N2C1=O [SPE_K02898090]
- activation at 10 µM: 7%

Structure (SMILES): COc1cc(Nc2nc3ccccc3nc2NS(=O)(=O)c2ccc(NC(=O)c3ccc(C)c(OC)c3)cc2)cc(OC)c1 [SPE_K75308783]
- activation at 10 µM: -7.72%

Structure (SMILES): NCc1cc(O)no1 [SPE_K60441002]
- activation at 10 µM: -7.28%

Structure (SMILES): O=C(Nc1cc(Cl)cc(Cl)c1O)c1c(O)c(Cl)cc(Cl)c1Cl [SPE_K07283971]
- activation at 10 µM: -4.07%

Structure (SMILES): NC(Cc1c[nH]c2ccc(O)cc12)C(=O)O (stereo not shown) [SPE_A73930134]
- activation at 10 µM: -6.97%

Structure (SMILES): COc1nc(C)nc(Cl)c1NC1=NCCN1 [SPE_K77771411]
- activation at 10 µM: -3.03%

Structure (SMILES): CS(=O)(=O)c1ccc(-c2cnc(NCc3ccco3)n3cnnc23)cc1 [SPE_K19002914]
- activation at 10 µM: 5.68%

Structure (SMILES): COCC(=O)O[C@]1(CCN(C)CCCc2nc3ccccc3[nH]2)CCc2cc(F)ccc2[C@@H]1C(C)C [SPE_K09549677]
- activation at 10 µM: 97.4%

Structure (SMILES): Fc1ccc(C(OCCN2CCN(CCCc3ccccc3)CC2)c2ccc(F)cc2)cc1 [SPE_K32501161]
- activation at 10 µM: -3.21%

Structure (SMILES): O=C1NC(=S)NC(=O)C1C(=O)Nc1ccccc1 [SPE_K45152786]
- activation at 10 µM: -1.42%

Structure (SMILES): Clc1ccc(C(Cn2ccnc2)OCc2ccc(Sc3ccccc3)cc2)c(Cl)c1 (stereo not shown) [SPE_A33697453]
- activation at 10 µM: 17.3%

Structure (SMILES): CNCCc1ccc(O)c(O)c1 [SPE_K33151569]
- activation at 10 µM: -7.82%

Structure (SMILES): C=C[C@@]1(C)CC(=O)[C@@]2(O)[C@](C)(O1)[C@@H](OC(C)=O)[C@@H](O)C1C(C)(C)CC[C@H](O)[C@@]12C (stereo partly shown) [SPE_A55416093]
- activation at 10 µM: -12.3%

Structure (SMILES): O=C(O)C(=O)c1cn(Cc2ccccc2)c2ccc(-c3ccc(OC(F)(F)F)cc3)cc12 [SPE_K30882994]
- activation at 10 µM: 1.29%

Structure (SMILES): Cc1c(NC(=O)c2cccnc2)c(=O)n(-c2ccccc2)n1C [SPE_K47407372]
- activation at 10 µM: -10.1%

Structure (SMILES): Oc1nc(-c2ccc(C(F)(F)F)cc2)nc2c1CSCC2 [SPE_K12762134]
- activation at 10 µM: -6.13%

Structure (SMILES): CCCN(CCC)S(=O)(=O)c1ccc(C(=O)O)cc1 [SPE_K95237249]
- activation at 10 µM: 0.643%

Structure (SMILES): COc1cc(N)c(Cl)cc1C(=O)OCCN1CCCCC1 [SPE_K69343602]
- activation at 10 µM: -4.29%

Structure (SMILES): C[C@@H](NC(=O)c1ncnc(N)c1Cl)c1ncc(C(=O)Nc2cc(C(F)(F)F)c(Cl)cn2)s1 [SPE_K43410529]
- activation at 10 µM: -2.41%

Structure (SMILES): O=C(O)CCn1c2c(c3ccccc31)C[C@H](NS(=O)(=O)c1ccc(F)cc1)CC2 [SPE_K08586861]
- activation at 10 µM: -12%

Structure (SMILES): CNC(=O)[C@H](Cc1ccccc1)NC(=O)[C@H](CC(C)C)[C@H](CSc1cccs1)C(=O)NO [SPE_K82818427]
- activation at 10 µM: 11.4%

Structure (SMILES): CCn1ccnc1CC1COc2ccccc2O1 (stereo not shown) [SPE_A10903566]
- activation at 10 µM: 2.21%

Structure (SMILES): CCc1ccc(C(=O)C(C)CN2CCCCC2)cc1 (stereo not shown) [SPE_A04252265]
- activation at 10 µM: -4.05%

Structure (SMILES): CC(C)S(=O)(=O)NC[C@H](C)c1ccc(-c2ccc(CCNS(C)(=O)=O)cc2)cc1 [SPE_K42981054]
- activation at 10 µM: -11.8%

Structure (SMILES): CC(=O)O[C@]1(C(C)=O)CC[C@H]2[C@@H]3C[C@H](C)C4=CC(=O)C=C[C@]4(C)[C@@]3(F)[C@@H](O)C[C@@]21C [SPE_K02528732]
- activation at 10 µM: -9.55%

Structure (SMILES): CCN1C(=O)NC(c2ccccc2)C1=O (stereo not shown) [SPE_A30205217]
- activation at 10 µM: -4.7%
